“Also recorded” adds a separate entry of the source. Read-outs that look alike come from different tables or passages of the source.
How the values were obtained:
[1] = system: H1299 cells; assay: CCK-8 cell viability assay, H1299; assay type: cell-based
Experimental: Referring now to FIG. 13A. Cell Viability and Apoptosis of Ovarian and p53 null Lung Cancer Cell Lines. A) Ovarian cancer cell line A2780 and the p53 null lung cancer cell line, H1299, were treated with log dosing of MCI13E and viability analyzed via CCK-8 metabolic assay as described in Methods. Data is presented as cell survival which was determined as a percent of the untreated control cells and represents the average and standard deviation of triplicate experiments Referring now to FIG. 13B.
Ovarian cancer cell line, A2780, cells are difficult to use for crystal violet analysis due to their enhanced sensitivity to treatment. Therefore, the cell counting kit-8 (CCK) was used to determine the viability of A2780 cells in addition to the p53 null lung cancer cell line H1299, following a 24 hour treatment with log dosing of SMI. Cells were plated (1×10^5) in 24-well dishes and treated with inhibitor after 24 hours. After treatment media was aspirated and 1 ml of DMEM was added in addition to 100 μL of CCK-8 solution. Absorbance at 450 nm was measured over 4 hours in a SpectraMax M5 plate reader and values are presented as the percent untreated control at the two hour time point for three separate plate replicates each containing three assays per plate.

[2] = target: T1, RPA DBD-A/B (Homo sapiens, UniProt P27694); assay: EMSA DNA binding assay, RPA DBD-A/B construct
T1 construct: made in house; host or cells: E. coli BL21(DE3)
T1 sequence (P27694 181-422 limits assumed): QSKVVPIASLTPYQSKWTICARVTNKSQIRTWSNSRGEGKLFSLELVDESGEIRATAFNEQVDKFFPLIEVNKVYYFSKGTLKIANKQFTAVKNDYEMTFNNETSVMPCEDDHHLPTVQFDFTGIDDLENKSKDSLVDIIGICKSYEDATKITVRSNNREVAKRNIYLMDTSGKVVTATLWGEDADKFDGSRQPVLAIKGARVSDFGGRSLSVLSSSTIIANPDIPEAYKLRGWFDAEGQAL
Experimental: DBD-A/B. The sequence encoding the RPA p70 DNA binding domains A and B were subcloned from the hrRPA plasmid (provided by Dr. Marc Wold, University of Iowa) into the pET15b (Novagen) vector and the protein was expressed in BL21(DE3) cells (Stratagene) as previously described. Briefly, cells were grown to an OD600 of 0.8, induced with 0.5 mM isopropyl-1-thio-β-D-galactopyranoside (IPTG) at 37° C. for 2-3 hours. Small scale DBD-A/B preparations were obtained from 1 L cultures and following induction, cells were harvested by centrifugation at 700×g for 30 minutes at 4° C. The pellets were suspended in Buffer A (20 mM Tris, pH 7.5, 10% glycerol, 500 mM NaCl, 10 mM β-mercaptoethanol (BME) and 1 μg/mL phenylmethanesulfonylfluoride (PMSF), leupeptin and pepstatin) at 1 mL/gram of cells. The cells were lysed by sonication and insoluble material sedimented at 15,000×g for 30 minutes at 4° C. The supernatant was then loaded onto a 10 mL phosphocellulose column, equilibrated with Buffer A, and the flow-through material collected. Imidazole was added to 5 mM to the flow through which was then loaded onto a 2 mL nickel-NTA-agarose column. The column was then washed with Buffer A containing 50 mM imidazole after which protein was eluted from the column using a gradient from 50-500 mM imidazole. Fractions were analyzed for protein content using Bradford and SDS-PAGE analysis in addition to assessment of DNA binding activity as determined by anisotropy. Fractions containing the DBD-A/B protein were pooled and dialyzed overnight in Buffer B (1 mM HEPES, pH 7.2, 10 mM dithiothreitol (DTT), 50 mM NaCl and 1 μg/mL PMSF, pepstatin and leupeptin) and aliquots stored at −80° C.
RPA and DBD-A/B Binding. EMSAs were performed as previously described (22) using a 30-base purine rich ssDNA substrate (3Pc3). […] Gels were dried and quantified via phosphorimager analysis and ImageQuant software (Molecular Dynamics).

[3] = target: T2, EcSSB (Escherichia coli, UniProt P0AGE0); assay: E. coli SSB DNA-binding EMSA; conditions: 0-200 μM, pre-incubated with protein
T2 construct: purchased Enzymatics, Beverly, Mass
T2 sequence (P0AGE0 2-178): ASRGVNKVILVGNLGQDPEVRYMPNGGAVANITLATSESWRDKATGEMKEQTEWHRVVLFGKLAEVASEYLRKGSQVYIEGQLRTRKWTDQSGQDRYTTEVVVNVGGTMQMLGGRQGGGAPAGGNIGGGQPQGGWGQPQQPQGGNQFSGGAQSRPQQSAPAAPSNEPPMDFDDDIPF
Experimental: (§1) In order to study the specificity of the CheSS19, and MCI13E/F compounds, their effects on two ssDNA binding proteins which use OB-folds for recognition and binding of ssDNA, E. coli SSB (6) and the Schizosaccharomyces pombe Pot1(DBD) domain (11) were studied. The EcSSB protein is a non-sequence-specific ssDNA binding protein, whereas the SpPot1(DBD) protein is a telomere-specific, ssDNA binding protein. In these experiments, protein was pre-incubated with the SMIs, as was done for the RPA experiments, prior to addition of radiolabeled ssDNA to the reactions.
Referring now to FIG. 6B. CheSS19 titration in EcSSB DNA-binding reactions. CheSS19 (0, 25, 50, 100, and 200 μM) was pre-incubated with EcSSB and binding reactions were carried out. Referring now to FIG. 6C. Titration of MCI13E and MCI13F in EcSSB DNA-binding reactions. Concentrations of MCI13E/F used were: 0, 25, 50, 100, and 200 μM. In all panels, the ‘Free’ ssDNA is indicated with an arrow and the ‘Bound’ ssDNA is indicated by brackets. All reactions were performed in the same order and manner as the RPA binding reactions. EcSSB binding was unaffected by CheSS19 and the MCI13E and MCI13F compounds […].
EMSAs were performed similarly to those for the RPA constructs, with the following exceptions. Reactions contained 25 nM of 5′-[^32P]-labeled 3Pc3 ssDNA and 3.3 nM (assuming homotetramer formation) SSB protein (Enzymatics, Beverly, Mass.). Reactions (20 μL) were carried out in 20 mM HEPES, pH 7.5, 1 mM DTT, 0.01% NP-40, 100 mM NaCl, and resolved by 6% native polyacrylamide gel electrophoresis at 25 mA for 2 hours. Gels were dried and quantified via phosphorimager analysis and ImageQuant software (Molecular Dynamics).

[4] = target: T3, SpPot1(DBD) (Schizosaccharomyces pombe, UniProt O13988); assay: SpPot1(DBD) ssDNA binding; conditions: protein pre-incubated with SMI
T3 construct: the Schizosaccharomyces pombe Pot1(DBD) domain (11) were studied
T3 sequence (O13988 1-389 limits assumed): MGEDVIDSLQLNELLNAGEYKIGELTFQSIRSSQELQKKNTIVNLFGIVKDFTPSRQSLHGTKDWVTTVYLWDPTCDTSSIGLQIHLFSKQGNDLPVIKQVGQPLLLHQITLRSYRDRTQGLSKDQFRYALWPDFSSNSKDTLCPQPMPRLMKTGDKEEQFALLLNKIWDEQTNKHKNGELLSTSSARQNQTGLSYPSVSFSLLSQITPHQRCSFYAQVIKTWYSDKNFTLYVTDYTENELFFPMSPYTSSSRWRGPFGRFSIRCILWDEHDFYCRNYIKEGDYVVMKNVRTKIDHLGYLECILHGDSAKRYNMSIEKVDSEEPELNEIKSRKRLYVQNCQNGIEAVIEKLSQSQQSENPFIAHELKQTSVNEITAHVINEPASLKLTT
Experimental: as §1

[5] = H1299, 24 hours after exposing the cells, read-out: IC50, cell viability
[6] = H1299, read-out: IC50, cell viability (text to Table 3)

| SMILES | IC50 [1, 5] | IC50 [1, 6] | Inhibition of DBD-A/B DNA binding [2] | Effect on EcSSB ssDNA binding [3] | Effect on SpPot1(DBD) ssDNA binding [4] | IC50 ([1]; H1299 (p53 null), 24 hours of treatment, CCK-8, read-out: IC50, cell viability) |
| --- | --- | --- | --- | --- | --- | --- |
| CC1(C)C2CCC1(C)C(OC(=O)CI)C2 (racemic) [MCI13F, (+/−)-Isobornyl iodoacetate] | 500 nM | ~500 nM | no inhibitory activity; also recorded: completely ineffective | unaffected; also recorded: no significant inhibition | no significant inhibition | – |
| CC1(C)C2CCC1(C)C(OC(=O)CBr)C2 (racemic) [MCI13E, (+/−)-Isobornyl bromoacetate] | 500 nM | ~500 nM | no inhibitory activity; also recorded: completely ineffective | unaffected; also recorded: no significant inhibition | no significant inhibition | ~4000 nM |

— patent publication US9757350B2, “Small molecule inhibitors of replication protein A that also act synergistically with cisplatin” (Indiana University Research and Technology Corp., priority 2010, dated 2017)
